One series concerns CCI model rats. The experiment in a line: Rat chronic stenosis injury model (CCI or Bennett model), Randall-Selitto test. In kind it is in vivo. The conditions noted are these: 2, 10 or 50 mg/kg single oral dose 3 hours before measurement, 12 days after CCI surgery, vs solvent group. On the procedure:
In order to confirm the effect of Compound 7 on neuropathic pain, the effect of Compound 7 on hyperalgesia caused by mechanical stimulation occurring in CCI model rats was investigated. Compound 7 was orally administered to rats as an investigational drug, and the following studies were carried out.
As an experimental animal, a 7-week-old Sprague Dawley male rat (220.4 to 328.0 g) was used. The surgery was performed according to the procedure described in Bennett et al., Pain, 1988, 33, 87-107. Under isoflurane anesthesia, the right sciatic nerve was exposed via a blunt incision in the biceps femoris. Proximal to the bifurcation of the sciatic nerve, the nerve was freed of adhering tissue and 4 loose ligatures of 4-0 silk were tied around the nerve. Spacing between ligatures was approximately 1 mm. The muscle was sutured in layers, and the skin closed with silk suture.
The experimental animals were composed of four groups: a solvent administration group and each administration group of either 2, 10 or 50 mg/kg of Compound 7 (Compound 7-administration group). Compound 7 was orally administered to the Compound 7-administration group in a single dose 3 hours before the measurement test performed 12 days after CCI surgery. […]
The baseline threshold value was measured before CCI surgery, and then the pain threshold value was measured 12 days after surgery.

The next series has as its system SNL model rats. The experiment in a line: Rat spinal nerve ligation model (SNL or Chung model), Dynamic Plantar Aesthesiometer test. The following applies: 50 mg/kg oral once a day for 7 days from the 15th day after SNL surgery, vs solvent group. In kind it is in vivo. On the procedure:
In order to confirm the effect of Compound 7 on neuropathic pain, the effect of Compound 7 on allodynia caused by mechanical stimulation occurring in SNL model rats was investigated. Compound 7 was orally administered to rats as a test drug, and the following tests were carried out.
As an experimental animal, a 6-week-old Sprague Dawley male rat (180 to 210 g) was used. The surgery was performed according to the procedure described in Chung et al., Pain, 1992, 50, 355-363. Under isoflurane anesthesia, a longitudinal incision was made in the dorsal skin from the thoracic spine to the sacral spine level. After incision and isolation of the paravertebral muscles, the L5 and L6 transverse processes were removed to expose the L5 and L6 spinal nerves. These nerves were ligated with 5-0 silk suture. Sham operated animals were treated identically with the exception that the nerves were not ligated. The muscle was sutured in layers, and the skin was closed with silk suture.
The experimental animals consisted of 6 groups: a sham operation group, a solvent administration group, and each administration group of either 0.4, 2, 10, or 50 mg/kg of Compound 7 (Compound 7-administration group). […]
The pain threshold for mechanical stimulation in the above rats, was measured using a Dynamic Plantar Aesthesiometer (manufactured by Ugo Basile).

Series [1] can be described thus: Study for pharmacokinetics in blood after oral administration to rats. The series is classed as in vivo. The conditions noted are these: male, Crl: CD (SD), rat, 30 mg/kg, oral 30 mg/kg once daily. On the procedure: Rats (strain: Crl: CD (SD), male, 7 weeks old, with diet) were orally administered a methylcellulose suspension containing a P2X7 receptor antagonist compound (Compound 7 or Compound 10). Then blood was collected from rats 15 and 30 minutes, 1, 2, 4, 8 and 24 hours after the administration, and the concentration of the compound contained in the collected blood was measured. The dose of the compound per dose was 30 mg/kg, and the concentration of the compound in the suspension was 3 mg/mL. Administration was carried out once daily for 4 consecutive days.
The variations of a blood level of the compound with the passage of time were analyzed by a conventional method, and the pharmacokinetic parameters were estimated.

Series [2] is described as follows: Study for assessing the central tissue distribution after oral administration to rats. In kind it is in vivo, rat. The conditions noted are these: for concentration at 1 h: male, Crl: CD (SD), plasma; for concentration at 1 h / Brain concentration / Spinal cord concentration: rat, oral 30 mg/kg, 1 hour after administration, mean value; for Distribution to blood and central tissue (in words): oral administration. The procedure: Rats (strain: Crl: CD (SD), male, 7 weeks old, with diet) were orally administered a methylcellulose suspension containing a P2X7 receptor antagonist compound (Compound 7 or Compound 10). Then central tissue was collected from rats 1 hour after its administration, and the compound distribution to the collected central tissue was assessed. The dose of the compound per dose was 30 mg/kg, and the concentration of the compound in the suspension was 3 mg/mL.
The study was carried out with n=2 or n=3.

A short description of series [3]: Central tissue distribution in humans: exposure to the cerebrospinal fluid after repeated oral administration. The series is classed as in vivo, human. The following applies: healthy subjects.
The test system of a further series is neuropathy model rats. The conditions noted are these: 30 mg/kg; cited from earlier work.
For series [4], the system named is amphetamine-induced hypersensitivity. The following applies: 30 mg/kg; cited from earlier work.
In series [5] the test system is hypersensitivity to mechanical stimulation. The conditions noted are these: in vivo; cited from earlier work.
Series [6] relates to animal models of bone cancer. The following applies: cited from earlier work.
Another series has as its system neuropathic pain in rats. The conditions noted are these: cited from earlier work.

Where a name gives a salt, the structure may show the parent alone.

Regarding `O=C(NCc1ccc(F)cc1Cl)[C@]1(F)CC[C@@](O)(CO)c2ncccc21` [Compound 7, (5S,8S)-N-(2-chloro-4-fluorobenzyl)-5-fluoro-8-hydroxy-8-(hydroxymethyl)-5,6,7,8-tetrahydroquinoline-5-carboxamide], the “Pain threshold value (paw pressure) lowered by CCI surgery” value with CCI model rats is on record as “significantly increased in all the administration groups”. Besides, the “Pain threshold value for mechanical stimulation lowered by SNL surgery” value in the series on SNL model rats is reported as “significantly increased”. Moreover, in series [1] (Day 1 of administration), the AUC(0-t) amounted to 80.1 µM·h, the Cmax was 18.5 µM and the Tmax was 20 min. In addition, in series [1] (Day 4 of administration), the AUC(0-t) was determined as 77.4 µM·h, the concentration peaked (Cmax) at 14.7 µM and the Tmax amounted to 35 min. In addition, in [2], the concentration at 1 h came to 19.3 µM; the “Distribution to blood and central tissue (in words)” value is “sufficient distribution to blood, brain and spinal cord”; the Brain concentration is given as 23.6 nmol/g tissue; the Spinal cord concentration was 27.7 nmol/g tissue. In addition, the “Exposure to the cerebrospinal fluid” value in [3] is listed as “Sufficient Exposure”.

With `O=C(NCC1(N2CCN(c3ccccc3)CC2)CCOCC1)c1cccnc1Sc1ccccc1` [JNJ-47965567], the “Efficacy in neuropathy model rats” value in the series with neuropathy model rats was “not a large but a significant efficacy”. For the same molecule, the “Effect on amphetamine-induced hypersensitivity” value in [4] is given as “alleviated the amphetamine-induced hypersensitivity”.

Turning to `Clc1cccc(-c2nnnn2Cc2cccnc2)c1Cl` [A438079 hydrochloride], the “Effect on development of hypersensitivity to mechanical stimulation” value in series [5] is recorded as “suppressed the development of hypersensitivity to mechanical stimulation”.

For `O=C(NCc1ccc(Cl)cc1Cl)[C@]1(F)CC[C@@](O)(CO)c2ncccc21` [Compound 10, (5S,8S)-N-(2,4-dichlorobenzyl)-5-fluoro-8-hydroxy-8-(hydroxymethyl)-5,6,7,8-tetrahydroquinoline-5-carboxamide], in [1] (Day 1 of administration), the AUC(0-t) amounted to 48.8 µM·h, the Cmax is 9.54 µM and the Tmax worked out at 20 min. Also, in [1] (Day 4 of administration), the AUC(0-t) is 45.6 µM·h, the highest concentration (Cmax) is 8.27 µM and the Tmax is 15 min. Also, in [2], the concentration at 1 h turned out to be 5.08 µM; the “Distribution to blood and central tissue (in words)” value was “sufficient distribution to blood, brain and spinal cord”; the Brain concentration came out at 9.22 nmol/g tissue; the Spinal cord concentration was determined as 11.4 nmol/g tissue.

`Clc1cccc(-c2nnnn2Cc2cccnc2)c1Cl` [Compound A-438079]: the “Effect on bone cancer-related behavior” value in series [6] is “could not alleviate bone cancer-related behavior”.

With `COc1ccc(CC(=O)NC(NC(=NC#N)Nc2cccc3ncccc23)C(C)(C)C)cc1OC` (stereo not shown) [Compound A-740003, N-(1-{[(cyanoimo) (5-quinolinylamino)methyl]amino}-2,2-dimethylpropyl)-2-(3,4-dimethoxyphenyl)acetamide], the “Effect on neuropathic pain” value with neuropathic pain in rats is on record as “reduced neuropathic pain in rats in a dose-dependent manner”.

As a reminder, the AUC(0-t) is the area under the concentration-time curve up to a stated or last time point. Higher therefore signals high exposure. A word on the Cmax: it is the highest concentration seen after dosing. The Tmax is the time from dosing to the highest level.

The record behind these values is patent US20240009180A1, “MEDICINE FOR ALLEVIATING NEUROPATHIC PAIN” (Asahi Kasei Pharma Corporation, priority 2020, published 2024).
